Reference: patent publication US20260022143A1, “Cyclic Peptide Inhibitors of IL-23” (JANSSEN PHARMACEUTICA NV, priority 2022, published 2026)
Structures can show the parent of a compound that is named as a salt. Starred links: 1 amine or outer side, 2 acyl side, 3 side chain; linkers in the order of their positions; H or OH if unused. Positions of bridges follow the written chain, without caps; N, C: chain ends. Non-standard residues stand in square brackets, D forms with d. Residues, ends and D or L forms follow the SMILES beside them. Groups on a side chain read outwards from the residue. *: point of attachment. Me3N+CH2CH2(OCH2CH2)4CO = C[N+](C)(C)CCOCCOCCOCCOCCC(=O)*; Trp(7-CF3) = N[C@@H](Cc1c[nH]c2c(C(F)(F)F)cccc12)C(=O)O; Trp(7-Me) = Cc1cccc2c(C[C@H](N)C(=O)O)c[nH]c12; 3Oxa8azabicyclo(3.2.1)octane = C1CC2COCC1N2*; Hexanoyl(6-NMe3+) = C[N+](C)(C)CCCCCC(=O)*; Lys(Me3) = C[N+](C)(C)CCCC[C@H](N)C(=O)O; 2Nal = N[C@@H](Cc1ccc2ccccc2c1)C(=O)O; AEF = NCCOc1ccc(C[C@H](N)C(=O)O)cc1; X19 = C[N+](C)(C)C[C@@H](CC(=O)O)N*; X10 = C[N+](C)(C)C[C@H](CC(=O)O)N*; dLys(Me) = CNCCCC[C@@H](N)C(=O)O; 3Pal = N[C@@H](Cc1cccnc1)C(=O)O; Lys(Me) = CNCCCC[C@H](N)C(=O)O; NHCH2CH2OCH2CH2OMe = COCCOCCN*; Pen = CC(C)(S)[C@H](N)C(=O)O; Suc = O=C(CCC(=O)[*:2])[*:1]; Thp = NC1(C(=O)O)CCOCC1; Dap = NC[C@H](N)C(=O)O; Me2NCH2CH2 = CN(C)CC*; Tfa = O=C(C(F)(F)F)*; Sar = CNCC(=O)O

experiment: Exposed Polar Surface Area (EPSA); assay type: physicochemical; conditions: SFC on Chirex 3014 column; sample 1 mM DMSO stock; read-out: EPSA
Method in brief: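 Polarity descriptor in Å² derived from retention time using 8 calibration standards re-run every 20 compounds. Duplicate injections of 1 mM DMSO stock; linear 5–60% modifier gradient (20 mM ammonium formate in MeOH) with CO2 at 4 mL/min, 35 °C, on a Chirex 3014 column.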

Structure (SMILES)	EPSA
CC(=O)NCCCC[C@@H]1NC(=O)[C@H](Cc2c[nH]c3c(C)cccc23)NC(=O)[C@H]([C@@H](C)O)NC(=O)[C@H](CC(N)=O)NC(=O)[C@@H](NC(C)=O)C(C)(C)SSC(C)(C)[C@@H](C(=O)N[C@@H](Cc2ccc(OCCN(C)C)cc2)C(=O)N[C@@H](Cc2ccc3ccccc3c2)C(=O)NC2(C(=O)N[C@@H](CNC(C)=O)C(=O)N[C@@H](CC(N)=O)C(=O)N[C@@H](Cc3cccnc3)C(=O)N(C)CC(N)=O)CCOCC2)NC1=O [compound 102] (Ac-[Pen]NT[Trp(7-Me)]K(Ac)[Pen]Y(Me2NCH2CH2)[2Nal][Thp][Dap](Ac)N[3Pal][Sar]-NH2; disulfide 1-6)	156 A^2
CC(=O)NCCCC[C@@H]1NC(=O)[C@H](Cc2c[nH]c3c(C)cccc23)NC(=O)[C@H]([C@@H](C)O)NC(=O)[C@H](CC(N)=O)NC(=O)[C@@H](NC(=O)[C@@H](CCCCNC(=O)CCC(=O)N[C@H](CC(=O)O)C[N+](C)(C)C)NC(C)=O)C(C)(C)SSC(C)(C)[C@@H](C(=O)N[C@@H](Cc2ccc(OCCN)cc2)C(=O)N[C@@H](Cc2ccc3ccccc3c2)C(=O)NC2(C(=O)N[C@@H](CCCCNC(C)=O)C(=O)N[C@@H](CC(N)=O)C(=O)N[C@@H](Cc3cccnc3)C(=O)N(C)CC(N)=O)CCOCC2)NC1=O [compound 107] (Ac-[dK]([Suc-X19])[Pen]NT[Trp(7-Me)]K(Ac)[Pen][AEF][2Nal][Thp]K(Ac)N[3Pal][Sar]-NH2; disulfide 2-7)	173 A^2
CC(=O)NCCCC[C@@H]1NC(=O)[C@H](Cc2c[nH]c3c(C)cccc23)NC(=O)[C@H]([C@@H](C)O)NC(=O)[C@H](CC(N)=O)NC(=O)[C@@H](NC(=O)[C@@H](CCCCNC(=O)CCC(=O)N[C@@H](CC(=O)O)C[N+](C)(C)C)NC(C)=O)C(C)(C)SSC(C)(C)[C@@H](C(=O)N[C@@H](Cc2ccc(OCCN)cc2)C(=O)N[C@@H](Cc2ccc3ccccc3c2)C(=O)NC2(C(=O)N[C@@H](CCCCNC(C)=O)C(=O)N[C@@H](CC(N)=O)C(=O)N[C@@H](Cc3cccnc3)C(=O)N(C)CC(N)=O)CCOCC2)NC1=O [compound 108] (Ac-[dK]([Suc-X10])[Pen]NT[Trp(7-Me)]K(Ac)[Pen][AEF][2Nal][Thp]K(Ac)N[3Pal][Sar]-NH2; disulfide 2-7)	173 A^2
CC(=O)NCCCC[C@@H]1NC(=O)[C@H](Cc2c[nH]c3c(C)cccc23)NC(=O)[C@H]([C@@H](C)O)NC(=O)[C@H](CC(N)=O)NC(=O)[C@@H](NC(C)=O)C(C)(C)SSC(C)(C)[C@@H](C(=O)N[C@@H](Cc2ccc(OCCN)cc2)C(=O)N[C@@H](Cc2ccc3ccccc3c2)C(=O)NC2(C(=O)N[C@@H](CCCCNC(=O)CCC(=O)N[C@H](CC(=O)O)C[N+](C)(C)C)C(=O)N[C@@H](CC(N)=O)C(=O)N[C@@H](Cc3cccnc3)C(=O)N(C)CC(N)=O)CCOCC2)NC1=O [compound 109] (Ac-[Pen]NT[Trp(7-Me)]K(Ac)[Pen][AEF][2Nal][Thp]K([Suc-X19])N[3Pal][Sar]-NH2; disulfide 1-6)	171 A^2
CC(=O)NCCCC[C@@H]1NC(=O)[C@H](Cc2c[nH]c3c(C)cccc23)NC(=O)[C@H]([C@@H](C)O)NC(=O)[C@H](CC(N)=O)NC(=O)[C@@H](NC(C)=O)C(C)(C)SSC(C)(C)[C@@H](C(=O)N[C@@H](Cc2ccc(OCCN)cc2)C(=O)N[C@@H](Cc2ccc3ccccc3c2)C(=O)NC2(C(=O)N[C@@H](CCCCNC(=O)CCC(=O)N[C@@H](CC(=O)O)C[N+](C)(C)C)C(=O)N[C@@H](CC(N)=O)C(=O)N[C@@H](Cc3cccnc3)C(=O)N(C)CC(N)=O)CCOCC2)NC1=O [compound 110] (Ac-[Pen]NT[Trp(7-Me)]K(Ac)[Pen][AEF][2Nal][Thp]K([Suc-X10])N[3Pal][Sar]-NH2; disulfide 1-6)	171 A^2
CC(=O)NCCCC[C@@H]1NC(=O)[C@H](Cc2c[nH]c3c(C)cccc23)NC(=O)[C@H]([C@@H](C)O)NC(=O)[C@H](CC(N)=O)NC(=O)[C@@H](NC(C)=O)C(C)(C)SSC(C)(C)[C@@H](C(=O)N[C@@H](Cc2ccc(OCCN)cc2)C(=O)N[C@@H](Cc2ccc3ccccc3c2)C(=O)NC2(C(=O)N[C@H](CCCCN(C)C(=O)CCOCCOCCOCCOCC[N+](C)(C)C)C(=O)N[C@@H](CC(N)=O)C(=O)N[C@@H](Cc3cccnc3)C(=O)N(C)CC(N)=O)CCOCC2)NC1=O [compound 111] (Ac-[Pen]NT[Trp(7-Me)]K(Ac)[Pen][AEF][2Nal][Thp][dLys(Me)](Me3N+CH2CH2(OCH2CH2)4CO)N[3Pal][Sar]-NH2; disulfide 1-6)	153 A^2
CC(=O)NCCCC[C@@H]1NC(=O)[C@H](Cc2c[nH]c3c(C)cccc23)NC(=O)[C@H]([C@@H](C)O)NC(=O)[C@H](CC(N)=O)NC(=O)[C@@H](NC(C)=O)C(C)(C)SSC(C)(C)[C@@H](C(=O)N[C@@H](Cc2ccc(OCCN)cc2)C(=O)N[C@@H](Cc2ccc3ccccc3c2)C(=O)NC2(C(=O)N[C@@H](CCC(=O)O)C(=O)N[C@@H](CC(N)=O)C(=O)N[C@@H](Cc3cccnc3)C(=O)N(C)CC(=O)N3C4CCC3COC4)CCOCC2)NC1=O [compound 115] (Ac-[Pen]NT[Trp(7-Me)]K(Ac)[Pen][AEF][2Nal][Thp]EN[3Pal][Sar]-{3Oxa8azabicyclo(3.2.1)octane}; disulfide 1-6)	171 A^2
COCCOCCNC(=O)CN(C)C(=O)[C@H](Cc1cccnc1)NC(=O)[C@H](CC(N)=O)NC(=O)[C@H](CCC(=O)O)NC(=O)C1(NC(=O)[C@H](Cc2ccc3ccccc3c2)NC(=O)[C@H](Cc2ccc(OCCN)cc2)NC(=O)[C@H]2NC(=O)[C@H](CCCCNC(C)=O)NC(=O)[C@H](Cc3c[nH]c4c(C)cccc34)NC(=O)[C@H]([C@@H](C)O)NC(=O)[C@H](CC(N)=O)NC(=O)[C@@H](NC(C)=O)C(C)(C)SSC2(C)C)CCOCC1 [compound 116] (Ac-[Pen]NT[Trp(7-Me)]K(Ac)[Pen][AEF][2Nal][Thp]EN[3Pal][Sar]-NHCH2CH2OCH2CH2OMe; disulfide 1-6 (inferred))	170 A^2

Now from value to compound:

EPSA	Structure (SMILES)
151 A^2	CC(=O)N(C)CCCC[C@@H]1NC(=O)[C@H](Cc2c[nH]c3c(C)cccc23)NC(=O)[C@H]([C@@H](C)O)NC(=O)[C@H](CC(=O)N(C)C)NC(=O)[C@@H](NC(=O)[C@H](CCCC[N+](C)(C)C)NC(=O)C(F)(F)F)C(C)(C)SSC(C)(C)[C@@H](C(=O)N[C@@H](Cc2ccc(OCCN(C)C)cc2)C(=O)N[C@@H](Cc2ccc3ccccc3c2)C(=O)NC2(C(=O)N[C@@H](CCC(=O)O)C(=O)N[C@@H](CC(N)=O)C(=O)N[C@@H](Cc3cccnc3)C(=O)N(C)CC(=O)N(C)C)CCOCC2)NC1=O [compound 93, CF3CO-K(Me)3-Pen(3)-N(N(Me)2)-T-7MeW-K(NMeAc)-Pen(3)-AEF(N(Me)2)-2Nal-THP-E-N-3Pya-Sar-CON(Me)2] (Tfa-[Lys(Me3)][Pen]D(NMe2)T[Trp(7-Me)][Lys(Me)](Ac)[Pen]Y(Me2NCH2CH2)[2Nal][Thp]EN[3Pal][Sar]-NMe2; disulfide 2-7)
142 A^2	CC(=O)N(C)CCCC[C@@H]1NC(=O)[C@H](Cc2c[nH]c3c(C(F)(F)F)cccc23)NC(=O)[C@H]([C@@H](C)O)NC(=O)[C@H](CC(=O)N(C)C)NC(=O)[C@@H](NC(=O)C(F)(F)F)C(C)(C)SSC(C)(C)[C@@H](C(=O)N[C@@H](Cc2ccc(OCCN)cc2)C(=O)N[C@@H](Cc2ccc3ccccc3c2)C(=O)NC2(C(=O)N[C@@H](CCCCN(C)C(C)=O)C(=O)N[C@@H](CC(N)=O)C(=O)N[C@@H](Cc3cccnc3)C(=O)N(C)CC(=O)N(C)C)CCOCC2)NC1=O [compound 94, CF3CO-Pen(3)-N(N(Me)2)-T-7CF3W-K(NMeAc)-Pen(3)-AEF-2Nal-THP-K(NMeAc)-N-3Pya-Sar-CON(Me)2] (Tfa-[Pen]D(NMe2)T[Trp(7-CF3)][Lys(Me)](Ac)[Pen][AEF][2Nal][Thp][Lys(Me)](Ac)N[3Pal][Sar]-NMe2; disulfide 1-6)
131 A^2	CC(=O)N(C)CCCC[C@@H]1NC(=O)[C@H](Cc2c[nH]c3c(C(F)(F)F)cccc23)NC(=O)[C@H]([C@@H](C)O)NC(=O)[C@H](CC(=O)N(C)C)NC(=O)[C@@H](NC(=O)C(F)(F)F)C(C)(C)SSC(C)(C)[C@@H](C(=O)N[C@@H](Cc2ccc(OCCN(C)C)cc2)C(=O)N[C@@H](Cc2ccc3ccccc3c2)C(=O)NC2(C(=O)N[C@@H](CCCCN(C)C(C)=O)C(=O)N[C@@H](CC(N)=O)C(=O)N[C@@H](Cc3cccnc3)C(=O)N(C)CC(=O)N(C)C)CCOCC2)NC1=O [compound 95, CF3CO-Pen(3)-N(N(Me)2)-T-7CF3W-K(NMeAc)-Pen(3)-AEF(N(Me)2)-2Nal-THP-K(NMeAc)-N-3Pya-Sar-CON(Me)2] (Tfa-[Pen]D(NMe2)T[Trp(7-CF3)][Lys(Me)](Ac)[Pen]Y(Me2NCH2CH2)[2Nal][Thp][Lys(Me)](Ac)N[3Pal][Sar]-NMe2; disulfide 1-6 (inferred))
164 A^2	CC(=O)NCCCC[C@@H]1NC(=O)[C@H](Cc2c[nH]c3c(C)cccc23)NC(=O)[C@H]([C@@H](C)O)NC(=O)[C@H](CC(N)=O)NC(=O)[C@@H](NC(=O)CCCCC[N+](C)(C)C)C(C)(C)SSC(C)(C)[C@@H](C(=O)N[C@@H](Cc2ccc(OCCN)cc2)C(=O)N[C@@H](Cc2ccc3ccccc3c2)C(=O)NC2(C(=O)N[C@@H](CNC(C)=O)C(=O)N[C@@H](CC(N)=O)C(=O)N[C@@H](Cc3cccnc3)C(=O)N(C)CC(N)=O)CCOCC2)NC1=O [compound 99] ({Hexanoyl(6-NMe3+)}-[Pen]NT[Trp(7-Me)]K(Ac)[Pen][AEF][2Nal][Thp][Dap](Ac)N[3Pal][Sar]-NH2; disulfide 1-6 (inferred))
139 A^2	CC(=O)N[C@@H]1C(=O)N[C@@H](CC(=O)N(C)C)C(=O)N[C@@H]([C@@H](C)O)C(=O)N[C@@H](Cc2c[nH]c3c(C)cccc23)C(=O)N[C@@H](CCCC[N+](C)(C)C)C(=O)N[C@H](C(=O)N[C@@H](Cc2ccc(OCCN(C)C)cc2)C(=O)N[C@@H](Cc2ccc3ccccc3c2)C(=O)NC2(C(=O)N[C@@H](CCCC[N+](C)(C)C)C(=O)N[C@@H](CC(N)=O)C(=O)N[C@@H](Cc3cccnc3)C(=O)N(C)CC(=O)N(C)C)CCOCC2)C(C)(C)SSC1(C)C [compound 117, MeCO-Pen(3)-N(N(Me)2)-T-7MeW-K(Me)3-Pen(3)-AEF(N(Me)2)-2Nal-THP-K(Me)3-N-3Pya-Sar-CON(Me)2] (Ac-[Pen]D(NMe2)T[Trp(7-Me)][Lys(Me3)][Pen]Y(Me2NCH2CH2)[2Nal][Thp][Lys(Me3)]N[3Pal][Sar]-NMe2; disulfide 1-6)
